In PubChem BioAssay (NCI):
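The concentration for 50% growth inhibition is given as GI50. TGI: concentration producing complete growth inhibition.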

What was measured:
Experiment in all cases: DTP human tumour cell line panel, 384-well format
MALME-3M melanoma = test system: MALME-3M melanoma
786-0 renal = test system: 786-0 renal
SK-MEL-28 melanoma = test system: SK-MEL-28 melanoma
KM12 colon = test system: KM12 colon
MCF7 breast = test system: MCF7 breast
OVCAR-3 ovarian = test system: OVCAR-3 ovarian
UACC-257 melanoma = test system: UACC-257 melanoma
NCI-H23 lung = test system: NCI-H23 lung
RXF 393 renal = test system: RXF 393 renal
A498 renal = test system: A498 renal
OVCAR-4 ovarian = test system: OVCAR-4 ovarian
HCC-2998 colon = test system: HCC-2998 colon
NCI-H522 lung = test system: NCI-H522 lung
MDA-MB-435 melanoma = test system: MDA-MB-435 melanoma
A549 NSCLC = test system: A549 NSCLC
UO-31 renal = test system: UO-31 renal
MDA-MB-231 breast = test system: MDA-MB-231 breast
HCT-116 colon = test system: HCT-116 colon
ACHN renal = test system: ACHN renal
SK-OV-3 ovarian = test system: SK-OV-3 ovarian
UACC-62 melanoma = test system: UACC-62 melanoma
TK-10 renal = test system: TK-10 renal
NCI-H460 NSCLC = test system: NCI-H460 NSCLC
MDA-MB-468 breast = test system: MDA-MB-468 breast
HT29 colon = test system: HT29 colon
NCI-H226 lung = test system: NCI-H226 lung
SNB-75 CNS = test system: SNB-75 CNS
PC-3 prostate = test system: PC-3 prostate
HS 578T breast = test system: HS 578T breast

CCOC(=O)C(Cc1ccc(CCCC(=O)NCCC(=O)Nc2ccc3nc(C)sc3c2)cc1)C(=O)OCC
GI50 (MALME-3M melanoma): 22.5 µM | TGI (MALME-3M melanoma): 45.7 µM | GI50 (786-0 renal): 26.7 µM | TGI (786-0 renal): 75 µM | GI50 (SK-MEL-28 melanoma): 26.6 µM | TGI (SK-MEL-28 melanoma): 51.7 µM | GI50 (KM12 colon): 18.8 µM | TGI (KM12 colon): 37.3 µM | GI50 (MCF7 breast): 16.7 µM | TGI (MCF7 breast): 32.5 µM | GI50 (OVCAR-3 ovarian): 21.9 µM | TGI (OVCAR-3 ovarian): 40.4 µM | GI50 (UACC-257 melanoma): 19 µM | TGI (UACC-257 melanoma): 33.1 µM | GI50 (NCI-H23 lung): 19.7 µM | TGI (NCI-H23 lung): 37.2 µM | GI50 (RXF 393 renal): 21.8 µM | TGI (RXF 393 renal): 48.3 µM | GI50 (A498 renal): 27.7 µM | TGI (A498 renal): 64.1 µM | GI50 (OVCAR-4 ovarian): 32.5 µM | TGI (OVCAR-4 ovarian): 72 µM | GI50 (HCC-2998 colon): 10.2 µM | TGI (HCC-2998 colon): 35.6 µM | GI50 (NCI-H522 lung): 20.5 µM | TGI (NCI-H522 lung): 37.1 µM | GI50 (MDA-MB-435 melanoma): 23.5 µM | TGI (MDA-MB-435 melanoma): 41.2 µM | GI50 (A549 NSCLC): 23.3 µM | TGI (A549 NSCLC): 59.1 µM | GI50 (UO-31 renal): 22.9 µM | TGI (UO-31 renal): 48.7 µM | GI50 (MDA-MB-231 breast): 21.1 µM | TGI (MDA-MB-231 breast): 48.1 µM | GI50 (HCT-116 colon): 25.9 µM | TGI (HCT-116 colon): 62.8 µM | GI50 (ACHN renal): 18 µM | TGI (ACHN renal): 31.9 µM | GI50 (SK-OV-3 ovarian): 22.6 µM | TGI (SK-OV-3 ovarian): 46.8 µM | GI50 (UACC-62 melanoma): 19.1 µM | TGI (UACC-62 melanoma): 33.6 µM | GI50 (TK-10 renal): 30.4 µM | TGI (TK-10 renal): 83.9 µM | GI50 (NCI-H460 NSCLC): 19.2 µM | TGI (NCI-H460 NSCLC): 35.9 µM | GI50 (MDA-MB-468 breast): 12 µM | TGI (MDA-MB-468 breast): 25.6 µM | GI50 (HT29 colon): 21.3 µM | TGI (HT29 colon): 42.5 µM | GI50 (NCI-H226 lung): 17.1 µM | TGI (NCI-H226 lung): 32.1 µM | GI50 (SNB-75 CNS): 19.7 µM | TGI (SNB-75 CNS): 35.8 µM | GI50 (PC-3 prostate): 19.4 µM | TGI (PC-3 prostate): 33.9 µM | GI50 (HS 578T breast): 19.8 µM | TGI (HS 578T breast): 34.5 µM
